Results: US8951563B2, “Antibiotic drug delivery and potentiation” (Technion Research & Development Foundation Limited, priority 2009, dated 2015)
In brackets after ≈: the same amount, converted by molar mass.

Legend:
[1] = tested on: four MDR clinical isolates of E. coli; type: cell-based
Procedure: (§1) Bacteria were grown overnight in LB growth medium and diluted 10,000-fold in same medium.
(§2) Inhibition of proliferation was determined by optical density measurements (620 nm) after incubation overnight at 37° C.

[2] = Freeze fracture electron microscopy of cochleates
[3] = Cochleate formation by light microscopy; type: physicochemical; set-up: key: or above (E!); excellent (E); good (G); poor (P); none (N)
Procedure: Lipid films containing binary mixtures of lipids were made from aliquots of stock solutions in chloroform:methanol (2:1). The solvent was evaporated with a stream of nitrogen gas and the lipids deposited as a film on the walls of a glass tube. The tubes were then placed in a vacuum dessicator for 3 hours. The films were kept under Argon at −20° C. The lipid films were hydrated with buffer solutions of OAK polymers with extensive vortexing, so as to have a lipid to polymer molar ratio of […].
Hydrated films were subjected to freeze thawing three times before imaging, to ensure proper equilibration of OAK with the multilamellar vesicles. A drop of this mixture was placed on a glass slide and covered with a glass coverslip. Light microscopy was carried out at room temperature using a Zeiss Axiovert 100M microscope with a Plan-Neofluar 100×/1.3 oil immersion objective. Images were analyzed with the Zeiss LSM image browser v2.8.
The morphology of the samples of different OAKs and different lipid mixtures could be classified into the following categories.
Table 5 presents the results of cochleate formation with different lipid mixtures of 1:10 lipid to polymer ratio, and a series of OAK polymers, indicated by their alternative denotations and SED ID Nos in parentheses. “Tm” denotes the melting temperature of the lipid bilayer afforded by the given lipid mixture. Some selected samples were further analyzed to confirm the results with freeze fracture electron microscopy for, as indicated in Table 5. Cochleate formation is defined as excellent (E) or above (E!), good (G), poor (P), or none (N) based on the aforementioned comparison, as well as on the abundance of cochleate structures observed in the light microscopy images. Lipid mixtures having a number in parenthesis are samples for which freeze-fracture electron microscopy analysis was conducted. Lipid mixtures having a “+” sign next to the number in parenthesis are samples which were confirmed by freeze-fracture electron microscopy as forming large cochleates with few vesicles and no inverted micellar (HII) morphology (samples 2, 3 and 5), or smaller cochleate structures mixed with other morphologies (samples 0 and 4). Lipid mixtures which contain only anionic lipids are marked with “^A”. Sample 0 is the lipid/OAK system used and presented in Example 1 hereinabove.

[4] = Maximal tolerated dose (MTD), single IV injection; settings: mice, free OAK
E. coli AG100 [5] = assay: Ethidium bromide (EtBr) uptake assay; type: cell-based; settings: bacteria in PBS, FIG. 2A
Procedure: Cells were grown overnight in LB broth at 37° C. to an optical density of 1 (620 nm), washed twice in 200 μl PBS, and resuspended in the same buffer containing 0.5% glucose. […] Fluorescence was recorded by a BioTeK synergy HT Microplate Reader (excitation, 530 nm; emission, 645 nm).
Ethidium bromide is known for its ability to spontaneously translocate across bacterial membranes and interact with nucleic acids, as can be evidenced by the increase in fluorescence signal.

[6] = Molecular charge and RP-HPLC hydrophobicity of polymers; type: physicochemical; settings: HPLC-RP gradient mobile phase
From the text: Briefly, the polymers were synthesized while applying the Fmoc active ester chemistry on a fully automated, programmable peptide synthesizer (Applied Biosystems 433A). After cleavage from the resin, the crude product was extracted with 30% acetonitrile in water and purified by RP-HPLC (Alliance Waters), so as to obtain a chromatographic homogeneity higher than 95%. HPLC runs were typically performed on C18 columns (Vydac, 250 mm×4.6 or 10 mm) using a linear gradient of acetonitrile in water (1% per minute), both solvents containing 0.1% trifluoroacetic acid. The purified polymers were subjected to mass spectrometry (ZQ Waters) and NMR analyses to confirm their composition, and stored as a lyophilized powder at −20° C. Prior to being tested, fresh solutions were prepared in water, vortexed, sonicated, centrifuged and then diluted in the appropriate medium.
“Q” represents the overall molecular charge at physiological pH; “ACN (%)” represents the percent of acetonitrile in the HPLC-RP gradient mobile phase at which the polymer was eluted and which corresponds to the estimated hydrophobicity of the polymer. The column headed by “Ref.” indicates prior reference of the OAK if present, wherein a number in parentheses “(##)” corresponds to the SEQ ID NO in U.S. Pat. No. 7,504,381; the letter “R” indicates a polymer published in Radzishevsky I. S. et al. (2008), Chem. Biol., 15(4), pp. 354-362; and “New” indicates a novel polymer disclosed herein.

E. coli AG100 [7] = assay: Bactericidal kinetics (time-kill); type: cell-based; settings: sub-MIC concentrations, FIG. 2B
Procedure: Bacteria were sampled at various time intervals, subjected to serial 10-fold dilutions, and plated onto LB-agar. Cell counts were determined using the drop plate method. Plates were incubated overnight at 37° C. and colonies were counted.

E. coli = type: cell-based
Procedure: (§3) All bacteria were cultured in Luria-Bertani (LB) medium (10 g/l tryptone, 5 g/l yeast extract, 5 g/l NaCl, pH 7.4).
as §1, §2

A. aureus = type: cell-based
Procedure: as §3, §1, §2

[8] = Encapsulation efficiency, liposome versus cochleate (MIC and fluorescamine methods); type: physicochemical
[9] = tested on: Klebsiella pneumoniae CI 1286; assay: Whole blood assay (stability and drug release); type: cell-based; settings: whole human blood, 37° C., 4 and 40 multiples of the MIC, FIG. 4D
Procedure: Stability and drug release rates were assessed using the human blood-resistant Klebsiella pneumoniae CI 1286. […] After the specified incubation periods (37° C.), aliquots were plated on LB agar as described above (Antibacterial assays) for CFU count.
The stability of OAK-cochleate and OAK-liposome preparations in whole blood was compared by assessing antibacterial activity against the blood-resistant strain of Klebsiella pneumonia.

## CCCCCCCCCCCC(=O)NC(CCCCN)C(=O)NCCCCCCCC(=O)NC(CCCCN)C(=O)NCCCCCCCC(=O)NC(CCCCN)C(=O)NCCCCCCCC(=O)NC(CCCCN)C(=O)NCCCCCCCC(=O)NC(CCCCN)C(=O)NCCCCCCCC(=O)NC(CCCCN)C(=O)NCCCCCCCC(=O)NC(CCCCN)C(=O)NCCCCCCCC(=O)NC(CCCCN)C(N)=O (stereo not drawn) [C12K-7α8, C12K(NC8K)7NH2]
[1]
  OAK MIC: 6.9 µg/mL
[2]; DMPE:TOCL (75:25), DPPE:TOCL (75:25) or DMPE:DOPG (75:25)
  cochleate formation by freeze fracture electron microscopy: strongly promoted the formation of large cochleates
[2]; POPC:TOCL 75:25, 10:1 lipid to polymer
  Pre-formed and fully formed cochleate Length: (1.8) μm
[2]; POPC:TOCL (75:25) or POPG:TOCL (75:25)
  cochleate formation by freeze fracture electron microscopy: weakly promoted cochleate formation
[3]; DMPC:TOCL 75:25, 1:10 lipid to polymer ratio
  Cochleate formation: N
[3]; DMPE:DOPG 75:25, 1:10 lipid to polymer ratio
  Cochleate formation: E
[3]; DMPE:TOCL 75:25, 1:10 lipid to polymer ratio
  Cochleate formation: E
[3]; DMPG:TOCL 75:25 (anionic lipids only), 1:10 lipid to polymer ratio
  Cochleate formation: N
[3]; DOPE:TOCL 75:25, 1:10 lipid to polymer ratio
  Cochleate formation: P
[3]; DPPE:TOCL 75:25, 1:10 lipid to polymer ratio
  Cochleate formation: E
[3]; POPC:TOCL 75:25, 1:10 lipid to polymer ratio
  Cochleate formation: P
[3]; POPE:DOPG 75:25, 1:10 lipid to polymer ratio
  Cochleate formation: N
[3]; POPE:DOPG:TOCL 80:15:5, 1:10 lipid to polymer ratio
  Cochleate formation: N
[3]; POPE:TOCL 50:50, lipid to polymer 10:1
  Cochleate formation: poor cochleate former
[3]; POPE:TOCL 75:25, 1:10 lipid to polymer ratio
  Cochleate formation: G
[3]; POPG:TOCL 75:25 (anionic lipids only), 1:10 lipid to polymer ratio
  Cochleate formation: G
[3]; TOCL alone, lipid to polymer 10:1
  Cochleate formation: abundance of smaller liposomes
[4]; 10 mg/kg
  mortality: 33%
[4]
  maximal tolerated dose (MTD): ~5 mg OAK/kg
E. coli AG100 [5]
  EtBr uptake (intracellular accumulation): enhanced in a dose-dependent manner
[6]
  ACN (%) (percent acetonitrile at elution, estimated hydrophobicity): 47.5%
E. coli AG100 [7]
  time-kill, OAK alone: significant bactericidal activity at sub-MIC concentrations
E. coli
  MIC E. coli: 3.1 µM (≈ 6.86 µg/mL)
A. aureus
  MIC A. aureus: 50 µM (≈ 111 µg/mL)
[8]; cochleates (POPE:TOCL)
  OAK encapsulation efficiency in cochleates (OAK bound): > 80%
[8]; liposomes (PC:PEG2000)
  OAK encapsulation efficiency in liposomes: < 20%

## C12K(NC8K)7NH2 [C12K-7α8]
[9]
  antibacterial activity / OAK release in whole blood: maintained rapid bactericidal activity
